Each block holds one molecule with its values, some of them ahead of it.
Tests used:
[1] = biological target: Platelet-derived growth factor receptor alpha (Homo sapiens, UniProt P16234)
Description: Inhibition of PDGFR-alpha (unknown origin)

[2] = biological target: Platelet-derived growth factor receptor beta (Homo sapiens, UniProt P09619)
Description: Inhibition of PDGFR-beta (unknown origin)

[3] = biological target: T1, Receptor-type tyrosine-protein kinase FLT3 (Homo sapiens, UniProt P36888)
T1 sequence (P36888 whole entry): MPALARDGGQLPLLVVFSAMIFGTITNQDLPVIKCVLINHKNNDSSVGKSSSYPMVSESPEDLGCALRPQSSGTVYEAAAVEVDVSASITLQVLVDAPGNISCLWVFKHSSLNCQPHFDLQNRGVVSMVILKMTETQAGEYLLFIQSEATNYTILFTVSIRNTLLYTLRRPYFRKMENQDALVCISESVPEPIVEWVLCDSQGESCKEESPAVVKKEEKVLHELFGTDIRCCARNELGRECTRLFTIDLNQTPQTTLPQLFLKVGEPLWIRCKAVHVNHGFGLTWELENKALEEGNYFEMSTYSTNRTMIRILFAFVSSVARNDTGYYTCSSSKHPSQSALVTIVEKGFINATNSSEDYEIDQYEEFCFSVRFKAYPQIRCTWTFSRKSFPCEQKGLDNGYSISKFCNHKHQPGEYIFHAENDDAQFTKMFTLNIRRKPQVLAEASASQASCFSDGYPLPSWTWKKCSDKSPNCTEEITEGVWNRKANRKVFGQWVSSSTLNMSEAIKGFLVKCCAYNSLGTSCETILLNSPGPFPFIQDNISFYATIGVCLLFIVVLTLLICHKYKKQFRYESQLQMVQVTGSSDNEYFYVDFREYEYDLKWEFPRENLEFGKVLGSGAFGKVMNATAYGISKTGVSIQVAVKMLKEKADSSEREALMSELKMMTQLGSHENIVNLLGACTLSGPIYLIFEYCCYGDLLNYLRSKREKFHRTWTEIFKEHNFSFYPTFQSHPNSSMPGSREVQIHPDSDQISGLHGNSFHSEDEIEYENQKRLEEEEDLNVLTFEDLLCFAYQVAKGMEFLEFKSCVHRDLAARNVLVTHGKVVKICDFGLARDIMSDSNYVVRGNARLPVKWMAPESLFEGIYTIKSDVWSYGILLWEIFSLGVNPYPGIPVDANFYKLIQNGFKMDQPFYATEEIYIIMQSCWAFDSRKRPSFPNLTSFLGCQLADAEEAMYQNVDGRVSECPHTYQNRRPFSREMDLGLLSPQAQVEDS
Description: Inhibition of FLT3 (unknown origin)

[4] = biological target: Voltage-gated inwardly rectifying potassium channel KCNH2 (Homo sapiens, UniProt Q12809); experiment: Inhibition of hERG; type: toxicity
Voltage-gated inwardly rectifying potassium channel KCNH2, sequence (Q12809 whole entry): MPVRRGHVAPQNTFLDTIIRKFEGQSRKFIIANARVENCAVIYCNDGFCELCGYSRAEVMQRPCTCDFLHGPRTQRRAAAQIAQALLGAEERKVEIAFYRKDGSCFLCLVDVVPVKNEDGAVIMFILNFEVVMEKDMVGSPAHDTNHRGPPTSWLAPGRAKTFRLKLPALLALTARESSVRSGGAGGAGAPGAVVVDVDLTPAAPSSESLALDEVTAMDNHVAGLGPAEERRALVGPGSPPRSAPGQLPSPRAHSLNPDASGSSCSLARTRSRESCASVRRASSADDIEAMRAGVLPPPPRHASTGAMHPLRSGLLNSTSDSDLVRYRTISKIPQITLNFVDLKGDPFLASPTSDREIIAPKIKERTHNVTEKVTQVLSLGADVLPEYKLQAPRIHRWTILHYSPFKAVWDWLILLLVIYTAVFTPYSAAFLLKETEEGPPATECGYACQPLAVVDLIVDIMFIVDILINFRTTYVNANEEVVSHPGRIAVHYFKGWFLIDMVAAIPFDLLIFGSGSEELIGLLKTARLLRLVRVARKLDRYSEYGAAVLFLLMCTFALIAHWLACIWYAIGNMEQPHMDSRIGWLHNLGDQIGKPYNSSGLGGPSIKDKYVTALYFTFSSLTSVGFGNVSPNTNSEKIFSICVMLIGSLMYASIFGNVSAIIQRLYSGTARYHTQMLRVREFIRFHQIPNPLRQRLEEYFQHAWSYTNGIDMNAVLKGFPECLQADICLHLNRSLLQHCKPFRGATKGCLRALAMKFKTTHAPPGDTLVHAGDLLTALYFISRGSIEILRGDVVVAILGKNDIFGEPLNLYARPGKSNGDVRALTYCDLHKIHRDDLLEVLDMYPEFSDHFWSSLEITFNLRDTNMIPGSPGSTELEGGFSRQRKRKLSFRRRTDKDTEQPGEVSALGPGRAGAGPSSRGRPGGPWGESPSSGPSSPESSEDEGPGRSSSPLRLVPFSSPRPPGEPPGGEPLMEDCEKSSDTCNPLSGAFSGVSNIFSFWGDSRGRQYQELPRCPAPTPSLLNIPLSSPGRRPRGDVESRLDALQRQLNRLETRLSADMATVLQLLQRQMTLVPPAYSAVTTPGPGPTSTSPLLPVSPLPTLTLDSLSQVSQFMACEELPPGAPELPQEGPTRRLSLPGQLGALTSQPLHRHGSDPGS

[5] = biological target: Vascular endothelial growth factor receptor 2 (Homo sapiens, UniProt P35968); experiment: Inhibition of KDR (unknown origin)
Vascular endothelial growth factor receptor 2, sequence (P35968 whole entry): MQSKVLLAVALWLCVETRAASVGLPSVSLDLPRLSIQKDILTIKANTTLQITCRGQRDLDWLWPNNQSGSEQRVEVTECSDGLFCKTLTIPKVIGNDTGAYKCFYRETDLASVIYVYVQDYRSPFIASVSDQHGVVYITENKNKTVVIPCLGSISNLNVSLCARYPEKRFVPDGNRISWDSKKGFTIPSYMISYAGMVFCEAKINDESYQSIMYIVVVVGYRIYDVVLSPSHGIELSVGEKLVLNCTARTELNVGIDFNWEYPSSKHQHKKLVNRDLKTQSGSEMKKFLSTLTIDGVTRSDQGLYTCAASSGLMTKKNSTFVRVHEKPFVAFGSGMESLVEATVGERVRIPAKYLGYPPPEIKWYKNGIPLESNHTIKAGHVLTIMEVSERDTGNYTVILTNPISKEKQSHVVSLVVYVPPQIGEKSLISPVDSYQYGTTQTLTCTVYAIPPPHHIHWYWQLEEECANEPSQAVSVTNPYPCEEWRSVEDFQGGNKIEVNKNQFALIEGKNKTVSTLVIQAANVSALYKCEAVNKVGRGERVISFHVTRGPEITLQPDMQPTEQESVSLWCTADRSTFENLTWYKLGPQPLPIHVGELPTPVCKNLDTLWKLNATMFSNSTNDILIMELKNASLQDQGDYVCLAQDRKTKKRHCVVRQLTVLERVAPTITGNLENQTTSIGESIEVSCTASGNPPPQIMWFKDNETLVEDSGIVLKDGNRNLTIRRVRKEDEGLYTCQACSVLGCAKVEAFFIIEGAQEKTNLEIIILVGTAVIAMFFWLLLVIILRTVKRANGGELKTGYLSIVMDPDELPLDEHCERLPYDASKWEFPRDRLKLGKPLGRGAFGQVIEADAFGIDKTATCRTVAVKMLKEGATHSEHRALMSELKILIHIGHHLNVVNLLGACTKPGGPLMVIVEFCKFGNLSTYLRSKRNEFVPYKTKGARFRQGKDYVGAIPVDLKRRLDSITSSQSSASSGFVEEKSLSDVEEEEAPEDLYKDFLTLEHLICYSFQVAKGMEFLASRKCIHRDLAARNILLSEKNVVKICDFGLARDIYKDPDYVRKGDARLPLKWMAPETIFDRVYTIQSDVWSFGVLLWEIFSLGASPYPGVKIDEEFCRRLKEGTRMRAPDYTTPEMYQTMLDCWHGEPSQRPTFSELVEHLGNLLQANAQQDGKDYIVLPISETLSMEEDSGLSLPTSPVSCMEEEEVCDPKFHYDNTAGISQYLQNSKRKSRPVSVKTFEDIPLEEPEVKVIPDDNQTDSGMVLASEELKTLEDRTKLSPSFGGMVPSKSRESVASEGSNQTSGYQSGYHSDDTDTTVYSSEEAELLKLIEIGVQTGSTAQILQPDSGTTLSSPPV

HCT-116 = experiment: cells; settings: Homo sapiens
Description: Anti-proliferative activity against human HCT-116 cells

HepG2 = experiment: Anti-proliferative activity against human HepG2 cells
Huh-7 = experiment: Anti-proliferative activity against human Huh-7 cells
Hep 3B2 [6] = experiment: Anti-proliferative activity against human Hep3B cells
HT-29 = experiment: Anti-proliferative activity against human HT-29 cells
Hep 3B2 [7] = experiment: Antitumor activity against human Hep3B cells xenografted in BALB/c mouse at 60 mg/kg, po qd treated for 10 days followed by discontinuation of administration and re-continuation on day 18 measured after 7 days relative to control; settings: read-out: TGI
[8] = Toxicity in BALB/c mouse xenografted with human Hep3B cells assessed as body weight loss at 60 mg/kg, po qd measured for 25 days; type: organism-based; settings: in vivo, 600 h, time 25 day
[9] = Anti-proliferative activity against human KATO III cells
SNU-16 = experiment: Anti-proliferative activity against human SNU-16 cells; type: functional, cell-based

Platelet-derived growth factor receptor alpha, sequence (P16234 whole entry): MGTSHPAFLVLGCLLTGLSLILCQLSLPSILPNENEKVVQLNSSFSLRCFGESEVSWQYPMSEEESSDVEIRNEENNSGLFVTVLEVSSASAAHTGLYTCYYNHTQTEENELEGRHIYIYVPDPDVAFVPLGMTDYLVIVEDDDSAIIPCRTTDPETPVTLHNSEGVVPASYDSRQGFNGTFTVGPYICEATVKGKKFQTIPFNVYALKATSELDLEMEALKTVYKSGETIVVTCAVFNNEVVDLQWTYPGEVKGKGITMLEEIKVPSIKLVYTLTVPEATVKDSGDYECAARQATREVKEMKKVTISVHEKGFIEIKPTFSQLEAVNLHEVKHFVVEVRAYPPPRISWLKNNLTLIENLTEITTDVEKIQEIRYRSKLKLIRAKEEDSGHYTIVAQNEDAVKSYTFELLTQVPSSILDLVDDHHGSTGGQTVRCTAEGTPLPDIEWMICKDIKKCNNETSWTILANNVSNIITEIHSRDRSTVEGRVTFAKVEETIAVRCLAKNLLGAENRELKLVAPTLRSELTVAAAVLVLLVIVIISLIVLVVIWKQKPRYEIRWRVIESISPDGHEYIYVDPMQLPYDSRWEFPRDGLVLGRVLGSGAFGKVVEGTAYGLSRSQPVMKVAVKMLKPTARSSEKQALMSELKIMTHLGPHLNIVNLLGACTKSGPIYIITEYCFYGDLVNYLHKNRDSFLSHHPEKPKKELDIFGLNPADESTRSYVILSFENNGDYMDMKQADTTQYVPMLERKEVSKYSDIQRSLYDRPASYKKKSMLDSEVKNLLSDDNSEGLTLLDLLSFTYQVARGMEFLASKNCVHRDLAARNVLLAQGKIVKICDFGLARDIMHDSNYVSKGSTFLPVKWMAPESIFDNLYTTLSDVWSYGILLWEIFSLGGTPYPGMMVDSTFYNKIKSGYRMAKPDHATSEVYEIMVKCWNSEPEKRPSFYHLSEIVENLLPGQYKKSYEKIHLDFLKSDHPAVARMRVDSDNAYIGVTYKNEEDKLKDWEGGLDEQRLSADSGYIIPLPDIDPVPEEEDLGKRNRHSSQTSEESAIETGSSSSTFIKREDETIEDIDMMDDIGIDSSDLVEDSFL
Platelet-derived growth factor receptor beta, sequence (P09619 whole entry): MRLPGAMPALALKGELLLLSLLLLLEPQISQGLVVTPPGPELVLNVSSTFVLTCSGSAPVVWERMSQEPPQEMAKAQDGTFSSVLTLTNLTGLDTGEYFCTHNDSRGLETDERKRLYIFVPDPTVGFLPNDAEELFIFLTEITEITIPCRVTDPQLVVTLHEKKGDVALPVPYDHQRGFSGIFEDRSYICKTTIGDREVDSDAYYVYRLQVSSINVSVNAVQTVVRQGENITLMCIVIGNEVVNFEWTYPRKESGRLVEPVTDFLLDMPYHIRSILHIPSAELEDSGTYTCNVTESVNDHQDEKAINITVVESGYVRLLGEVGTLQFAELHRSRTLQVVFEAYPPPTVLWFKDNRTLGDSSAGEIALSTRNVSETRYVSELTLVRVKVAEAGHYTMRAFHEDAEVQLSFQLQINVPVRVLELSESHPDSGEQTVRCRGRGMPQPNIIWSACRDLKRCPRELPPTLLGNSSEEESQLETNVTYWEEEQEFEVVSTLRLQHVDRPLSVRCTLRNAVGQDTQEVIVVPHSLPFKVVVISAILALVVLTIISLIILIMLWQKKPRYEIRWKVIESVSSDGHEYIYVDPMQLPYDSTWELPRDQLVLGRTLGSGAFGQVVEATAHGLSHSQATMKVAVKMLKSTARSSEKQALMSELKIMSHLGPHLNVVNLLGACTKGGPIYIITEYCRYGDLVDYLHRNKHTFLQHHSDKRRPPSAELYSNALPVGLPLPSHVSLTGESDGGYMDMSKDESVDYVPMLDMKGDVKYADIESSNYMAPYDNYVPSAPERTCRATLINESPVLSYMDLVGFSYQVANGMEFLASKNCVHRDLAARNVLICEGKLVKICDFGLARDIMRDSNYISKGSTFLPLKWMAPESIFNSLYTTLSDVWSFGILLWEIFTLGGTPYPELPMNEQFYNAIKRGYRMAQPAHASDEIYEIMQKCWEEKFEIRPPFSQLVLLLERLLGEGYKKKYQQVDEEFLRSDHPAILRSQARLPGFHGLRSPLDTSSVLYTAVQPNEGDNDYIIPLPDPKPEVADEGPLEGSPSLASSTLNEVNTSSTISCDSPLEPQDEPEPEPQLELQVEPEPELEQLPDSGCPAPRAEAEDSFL

- IC50 [1]: 0.18 nM
- IC50 [2]: 0.89 nM
- IC50 [3]: 0.33 nM
SMILES: CC(C)(C)c1cc(NC(=O)Cc2ccc(-n3cnc4cc(-c5cn[nH]c5)ccc43)cc2)on1
- IC50 [4]: 26.5 µM

- IC50 (HCT-116): 7.26 µM
- IC50 (HepG2): 3.66 µM
- IC50 (Huh-7): 3.66 µM
- IC50 (HT-29): 5.83 µM
SMILES: COc1cc2nccc(Oc3ccc(NC(=O)C4(C(=O)Nc5ccc(F)cc5)CC4)cc3)c2cc1OC [CABOZANTINIB]
- IC50 (Hep 3B2 [6]): 6.5 µM

- IC50 (HCT-116): 4.43 µM
- IC50 (HT-29): 5.35 µM
- IC50 (SNU-16): 954 nM
SMILES: CNC(=O)c1cc(Oc2ccc(NC(=O)Nc3ccc(Cl)c(C(F)(F)F)c3)cc2)ccn1 [SORAFENIB]
- inhibition in vivo at 60 mg/kg (Hep 3B2 [7]): 34%
- IC50 (Hep 3B2 [6]): 3.33 µM
- Activity [8]: ~ 16.32%
- IC50 [9]: 569 nM

Continued, molecule first:

SMILES: CC(C)(C)c1cc(NC(=O)Cc2ccc(-n3cnc4cc(-c5cccnc5)ccc43)cc2)on1
- IC50 [1]: 0.28 nM
- IC50 [2]: 1.3 nM
- IC50 [3]: 0.73 nM

SMILES: CC(C)(C)c1cc(NC(=O)Cc2ccc(-n3cnc4cc(C5CCNCC5)ccc43)cc2)on1
- IC50 [1]: 11 nM
- IC50 [2]: 12 nM
- IC50 [3]: 22 nM

SMILES: CC(C)(C)OC(=O)Cn1cc(-c2ccc3c(c2)ncn3-c2ccc(CC(=O)Nc3cc(C(C)(C)C)no3)cc2)cn1
- IC50 [5]: 6.5 nM

SMILES: Cn1cc(-c2ccc3c(c2)ncn3-c2ccc(CC(=O)Nc3cc(C(C)(C)C)no3)cc2)cn1
- IC50 [1]: 0.22 nM
- IC50 [2]: 1.15 nM
- IC50 [3]: 0.59 nM
- IC50 [4]: 17.9 µM

From ChEMBL document CHEMBL6083222, “Discovery of novel, orally bioavailable phenylacetamide derivatives as multikinase inhibitors and in vivo efficacy study in hepatocellular carcinoma animal models” (Bioorg Med Chem Lett, 2024)
